Measured values taken from PMC6309308 (Cell chemical biology, 2018).
“And” between values parts separate entries of the source, which are not always exact repeats. Equal entries are not always repeated.

How the values were obtained:
[1] = tested on: bortezomib-resistant (BTZR) RPE1 cells; assay: Bortezomib-resistant RPE1 cell proliferation; assay type: cell-based; settings: BTZR RPE cells, 72 hours
WT RPE1 cells = assay: RPE1 WT cell proliferation; assay type: cell-based; settings: WT RPE cells, 72 hours
Csn5 = Csn5 (Homo sapiens, UniProt Q92905); assay: Csn5 inhibition assay; assay type: biochemical; settings: read-out: IC50 Csn5
NFE2L1 in HCT116 cells = assay: Immunoblot of NFE2L1 accumulation; settings: HCT116, 6 hours
HCT116 cells = assay: Cell detachment; settings: ETPs 10 μM, 3 hours
[2] = tested on: unfolded protein response in HCT116 cells; assay: Unfolded protein response immunoblot; assay type: cell-based, human; settings: HCT116, 6 hours
[3] = molecular target: Human carbonic anhydrase II (hCAII) (Homo sapiens, UniProt P00918); assay: hCAII assay; assay type: biochemical; settings: read-out: IC50 hCAII; 10 nM hCAII, pH 8.0
MMP-2 = molecular target: T1, MMP-2 (Homo sapiens, UniProt P08253); assay: MMP-2 assay; assay type: biochemical; settings: read-out: IC50 MMP-2
T1 sequence (P08253 110-660): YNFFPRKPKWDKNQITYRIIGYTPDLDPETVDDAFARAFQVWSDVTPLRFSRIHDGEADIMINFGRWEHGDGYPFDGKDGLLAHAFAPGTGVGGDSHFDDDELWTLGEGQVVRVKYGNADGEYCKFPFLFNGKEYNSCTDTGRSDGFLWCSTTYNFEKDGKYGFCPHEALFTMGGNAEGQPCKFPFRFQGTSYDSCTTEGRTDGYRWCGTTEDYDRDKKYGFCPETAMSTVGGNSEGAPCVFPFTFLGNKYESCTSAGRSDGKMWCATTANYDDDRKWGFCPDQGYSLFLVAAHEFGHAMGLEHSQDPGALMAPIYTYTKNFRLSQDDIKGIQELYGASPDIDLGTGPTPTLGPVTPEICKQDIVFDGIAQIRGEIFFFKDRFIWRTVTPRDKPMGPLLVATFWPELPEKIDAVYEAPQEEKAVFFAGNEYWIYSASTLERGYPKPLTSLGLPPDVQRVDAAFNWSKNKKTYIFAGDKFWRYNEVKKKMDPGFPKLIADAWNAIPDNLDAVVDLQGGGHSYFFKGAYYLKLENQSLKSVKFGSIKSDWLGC

AMSH = molecular target: T2, AMSH (Homo sapiens, UniProt O95630); assay: AMSH inhibition assay; assay type: biochemical; settings: read-out: IC50 AMSH
T2 sequence (O95630 1-424): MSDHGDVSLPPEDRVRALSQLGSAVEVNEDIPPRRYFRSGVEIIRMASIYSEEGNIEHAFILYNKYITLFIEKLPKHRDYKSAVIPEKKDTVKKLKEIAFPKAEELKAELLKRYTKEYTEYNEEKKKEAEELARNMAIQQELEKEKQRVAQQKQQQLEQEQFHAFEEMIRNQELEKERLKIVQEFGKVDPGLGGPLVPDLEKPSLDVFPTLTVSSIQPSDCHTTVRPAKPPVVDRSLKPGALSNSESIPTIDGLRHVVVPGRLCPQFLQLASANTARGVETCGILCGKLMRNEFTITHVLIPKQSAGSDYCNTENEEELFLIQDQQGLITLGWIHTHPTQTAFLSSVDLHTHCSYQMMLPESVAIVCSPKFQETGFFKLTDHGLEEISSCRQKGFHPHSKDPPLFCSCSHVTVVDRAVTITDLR

Rpn11 = Rpn11 (Homo sapiens, UniProt O00487); assay: Rpn11 activity assay with Ub4-peptide substrate; assay type: biochemical; settings: read-out: IC50 Rpn11
[4] = tested on: c-Myc mRNA in HCT116 cells; assay: c-Myc mRNA expression by qRT-PCR; assay type: cell-based, human; settings: 10 μM, 4 hours, normalized to GAPDH
[5] = tested on: HCT116 human colon cancer cells; assay: HCT116 cell proliferation; assay type: cell-based
[6] = molecular target: purified human 26S proteasome (Homo sapiens, UniProt O00487+P28074); assay: SDS-PAGE analysis of proteasome activity; assay type: biochemical; settings: 37 °C, 2 hours; 20 μM capzimin, 10 μM carfilzomib
26S proteasome = 26S proteasome (Homo sapiens, UniProt O00487); assay: Fluorescence polarization protein degradation assay with purified 26S proteasome; settings: 37 °C, SOP6, gliotoxin 10 µM each
IκB = assay: IκBα degradation assay after TNF-α stimulation; assay type: cell-based, human; settings: Hela cells, 10 minutes pre-treatment, TNF-α 30 minutes
Cul1 in HCT116 cells = assay: Immunoblot of Nedd8-conjugated Cul1; settings: HCT116, 6 hours
[7] = molecular target: chymotrypsin-like activity of the 20S proteasome (Homo sapiens, UniProt P28074); assay: Suc-LLVY-amc fluorescence assay of chymotrypsin-like activity; settings: 20 µM compound, 20 μM Suc-LLVY-amc, 15 nM 26S proteasome
[8] = tested on: ubiquitin conjugates in HCT116 cells; assay: Immunoblot of poly-ubiquitinated species; settings: HCT116, 10 μM, 3 hours

**Q.** With `O=C1[C@H]2N(Cc3ccccc3)C(=O)[C@@](Cc3ccccc3)(N1Cc1ccccc1)S2=S` (mixture of isomers) [SOP11, (±)-(1S,4S)-1,2,5-tribenzyl-7-thia-2,5-diazabicyclo[2.2.1]heptane-3,6-dione 7-sulfide] as the compound, how does the GI50 [1] read?
**A.** The GI50 was about 8 µM.

**Q.** What about the GI50 (WT RPE1 cells) of the same compound?
**A.** The GI50 was about 8 µM.

**Q.** And the IC50 (Csn5)?
**A.** Its IC50 is 0.6 ± 0.2 µM.

**Q.** What about the “accumulation of processed NFE2L1” value (NFE2L1 in HCT116 cells) of the same compound?
**A.** Its value is “induced accumulation of processed NFE2L1”.

**Q.** What about the cell detachment (HCT116 cells) of the same compound?
**A.** The cell detachment was “did not detach cells”.

**Q.** What about the “unfolded protein response (UPR)” value [2] of the same compound?
**A.** The value was “provoked a pronounced UPR”.

**Q.** What about the IC50 [3] of the same compound?
**A.** The IC50 was over 100 µM.

**Q.** What about the IC50 (MMP-2) of the same compound?
**A.** The IC50 was over 100 µM.

**Q.** What about the IC50 (AMSH) of the same compound?
**A.** Its IC50 is 0.9 ± 0.1 µM.

**Q.** What about the IC50 (Rpn11) of the same compound?
**A.** Its IC50 is 1.3 ± 0.3 µM.

**Q.** What about the “level of c-Myc mRNA” value [4] of the same compound?
**A.** The value was “decreased”.

**Q.** What about the GI50 [5] of the same compound?
**A.** The GI50 was ~4.7 µM and 4.7 µM.

**Q.** With `Nc1ncnc2c1ncn2[C@@H]1O[C@H](COP(=O)(O)OP(=O)(O)NP(=O)(O)O)[C@@H](O)[C@H]1O` [AMP-PNP] as the compound, how does the “degradation of UbnGST-Wbp2 by 26S proteasome (SDS-PAGE)” value (“degradation of UbnGST-Wbp2” for short) [6] read?
**A.** The value was “blocked”.

**Q.** With `Nc1ncnc2c1ncn2[C@@H]1O[C@H](CO[P@](=O)(O)O[P@](=O)(O)O[P@@](=O)(O)S)[C@@H](O)[C@H]1O` [ATPγS] as the compound, how does the “effect on decline in fluorescence polarization (K48UbnGST-Wbp2 degradation)” value (26S proteasome) read?
**A.** The value was “inhibited”.

**Q.** Which cell detachment (HCT116 cells) does the source give for `CC(C)C[C@H](NC(=O)[C@H](Cc1ccccc1)NC(=O)c1cnccn1)B(O)O` [bortezomib] here?
**A.** The cell detachment was “not observed”.

**Q.** Which cell detachment (HCT116 cells) does the source give for `O=C(NCCc1nccs1)c1cnc2c(SSc3cccc4cc(C(=O)NCCc5nccs5)cnc34)cccc2c1` [capzimin] here?
**A.** Its cell detachment is “not observed”.

**Q.** What about the “degradation of UbnGST-Wbp2” value [6] of the same compound?
**A.** The value was “blocked”.

**Q.** With `CC(C)C[C@H](NC(=O)[C@H](CCc1ccccc1)NC(=O)CN1CCOCC1)C(=O)N[C@@H](Cc1ccccc1)C(=O)N[C@@H](CC(C)C)C(=O)[C@@]1(C)CO1` [carfilzomib] as the compound, how does the “degradation of UbnGST-Wbp2” value [6] read?
**A.** The value was “blocked”.

**Q.** With `CN1C(=O)[C@]2(Cc3cn([C@]45C[C@@]67SS[C@@](CO)(C(=O)N6[C@H]4Nc4ccccc45)N(C)C7=O)c4ccccc34)SS[C@@]1(CO)C(=O)N2C` [chetomin] as the compound, how does the “effect on degradation of IκB induced by TNF-α” value (IκB) read?
**A.** The value was “strongly stabilized IκB”.

**Q.** Which results are given for `CN1C(=O)[C@]23CC4=CC=C[C@H](O)[C@H]4N2C(=O)[C@@]1(CO)SS3` [gliotoxin]?
**A.** cell detachment (HCT116 cells): induce cell detachment; accumulation of Nedd8-conjugated Cul1 (Cul1 in HCT116 cells): caused accumulation of Nedd8-conjugated Cul1; inhibition of chymotrypsin-like activity of the proteasome [7]: do not inhibit; accumulation of poly-ubiquitinated species [8]: led to the accumulation of ubiquitinated species; effect on degradation of IκB induced by TNF-α (IκB): strongly stabilized IκB
